Laboratory results taken from article PMC5919688, “Cyclic di-AMP regulation of osmotic homeostasis is essential in Group B Streptococcus” (PLoS Genetics, 2018).

Assays:
DacA (rDacA) = target: T1, DacA (rDacA) (Streptococcus agalactiae, UniProt Q8E051); assay: RP-HPLC of c-di-AMP formation; type: biochemical; conditions: 2.5 uM rDacA, 1 mM ATP, 50 mM Tris pH 8.5, 100 mM NaCl, 10 mM MnCl2, 37 C
T1 construct: amino acids 96-243, transmembrane domain deleted, N-terminal 6xHis (pET28a), E. coli Bli5, purified
T1 sequence (Q8E051 96-243): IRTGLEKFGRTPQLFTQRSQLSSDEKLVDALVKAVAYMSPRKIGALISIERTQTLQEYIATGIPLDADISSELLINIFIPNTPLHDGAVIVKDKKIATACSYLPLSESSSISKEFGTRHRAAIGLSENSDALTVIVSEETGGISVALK

KtrA (Gbs1678) = target: T2, KtrA (Gbs1678) (Streptococcus agalactiae, UniProt Q8E3S8); assay: DRaCALA, […]-labelled c-di-AMP, whole E. coli extract; type: binding; conditions: […]P-c-di-AMP, […] Tris pH […] NaCl, […] MgCl2, room temperature; labelled compound; competition with […] cold nucleotide
T2 construct: full length, N-terminal His or His-MBP tag, expressed in E. coli Bli5, whole-cell extract
T2 sequence (Q8E3S8 1-223): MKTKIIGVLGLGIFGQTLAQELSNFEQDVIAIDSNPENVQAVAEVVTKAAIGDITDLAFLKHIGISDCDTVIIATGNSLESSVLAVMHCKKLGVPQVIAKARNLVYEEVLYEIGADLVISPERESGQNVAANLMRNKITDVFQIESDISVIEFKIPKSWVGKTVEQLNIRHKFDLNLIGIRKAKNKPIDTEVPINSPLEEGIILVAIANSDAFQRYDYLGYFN

OpuCA (Gbs0235) = target: T3, OpuCA (Gbs0235) (Streptococcus agalactiae, UniProt Q8E7C0); assay: as above; type: binding; conditions: […]P-c-di-AMP, […] Tris pH […] NaCl, […] MgCl2, room temperature; labelled compound; competition with […] cold nucleotide
T3 construct: full length, N-terminal His-MBP tag (signal only with this tag), expressed in E. coli Bli5, whole-cell extract
T3 sequence (Q8E7C0 1-381): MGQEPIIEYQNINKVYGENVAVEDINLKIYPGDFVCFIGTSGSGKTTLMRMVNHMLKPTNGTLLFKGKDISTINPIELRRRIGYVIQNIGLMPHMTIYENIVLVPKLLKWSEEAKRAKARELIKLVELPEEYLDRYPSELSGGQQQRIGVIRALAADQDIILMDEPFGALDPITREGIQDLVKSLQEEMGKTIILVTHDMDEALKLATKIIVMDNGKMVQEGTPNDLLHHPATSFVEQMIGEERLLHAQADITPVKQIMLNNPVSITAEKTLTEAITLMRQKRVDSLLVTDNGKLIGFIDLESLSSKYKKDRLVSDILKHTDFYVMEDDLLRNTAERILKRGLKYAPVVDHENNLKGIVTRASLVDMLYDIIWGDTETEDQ

TrkH (Gbs1639) = target: T4, TrkH (Gbs1639) (Streptococcus agalactiae, UniProt Q8DYA0); assay: as above; type: binding; conditions: 1 nM 32P-c-di-AMP, 40 mM Tris pH 7.5, 100 mM NaCl, 10 mM MgCl2, room temperature; labelled compound; competition with 200 uM cold nucleotide
T4 construct: gene SAG1590; full length, N-terminal His tag (detected by Western only with the His tag), expressed in E. coli Bli5, whole-cell extract
T4 sequence (Q8DYA0 1-449): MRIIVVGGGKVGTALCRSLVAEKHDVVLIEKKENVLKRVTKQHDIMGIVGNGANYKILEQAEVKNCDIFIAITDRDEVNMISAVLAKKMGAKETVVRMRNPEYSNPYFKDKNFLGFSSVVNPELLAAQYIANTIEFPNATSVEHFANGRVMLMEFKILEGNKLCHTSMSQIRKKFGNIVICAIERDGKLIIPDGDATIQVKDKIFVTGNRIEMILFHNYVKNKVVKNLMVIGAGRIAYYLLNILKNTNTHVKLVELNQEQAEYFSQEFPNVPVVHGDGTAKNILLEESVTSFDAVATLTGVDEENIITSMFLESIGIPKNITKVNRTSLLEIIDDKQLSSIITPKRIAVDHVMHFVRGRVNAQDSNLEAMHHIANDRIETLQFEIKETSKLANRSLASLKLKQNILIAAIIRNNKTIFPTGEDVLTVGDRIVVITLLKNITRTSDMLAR

BusR (Gbs1201) = target: T5, BusR (Gbs1201) (Streptococcus agalactiae, UniProt I7JWA3); assay: as above; type: binding; conditions: 1 nM 32P-c-di-AMP, 40 mM Tris pH 7.5, 100 mM NaCl, 10 mM MgCl2, room temperature; labelled compound; competition with 200 uM cold nucleotide
T5 construct: gene BM110_ORF1201; full length (213 aa), N-terminal His or His-MBP tag, expressed in E. coli Bli5, whole-cell extract
T5 sequence (I7JWA3 1-213): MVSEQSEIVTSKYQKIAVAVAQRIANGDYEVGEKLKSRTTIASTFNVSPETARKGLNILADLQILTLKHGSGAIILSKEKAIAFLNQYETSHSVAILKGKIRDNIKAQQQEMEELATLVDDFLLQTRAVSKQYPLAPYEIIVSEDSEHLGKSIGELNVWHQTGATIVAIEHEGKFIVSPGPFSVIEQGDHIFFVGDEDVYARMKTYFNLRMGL

[1] = tested on: T6, BusR (rBusR) (Streptococcus agalactiae NEM316), ORF:6b20ee22; assay: EMSA; conditions: 25 mM Na2HPO4/NaH2PO4 pH 8, 50 mM NaCl, 2 mM MgCl2, 1 mM DTT, 10% glycerol, 0.1 ug/ul poly(dI-dC), 0.02 ug/ul BSA, 20 min room temperature; 6% PAGE at 4 C
T6 sequence: T5 sequence (I7JWA3 1-213)

Row | Molecule | RP-HPLC of c-di-AMP formation (DacA (rDacA)) | DRaCALA, 32P-labelled c-di-AMP, whole E. coli extract (KtrA (Gbs1678)) | DRaCALA, 32P-labelled c-di-AMP, whole E. coli extract (OpuCA (Gbs0235)) | DRaCALA, 32P-labelled c-di-AMP, whole E. coli extract (TrkH (Gbs1639)) | DRaCALA, 32P-labelled c-di-AMP, whole E. coli extract (BusR (Gbs1201)) | binding [1]
1 | Nc1ncnc2c1ncn2[C@@H]1O[C@H](COP(=O)(O)OP(=O)(O)OP(=O)(O)O)[C@@H](O)[C@H]1O [ATP] | the purified recombinant DacA protein produces c-di-AMP from two molecules of ATP |  |  |  |  | 
2 | Nc1ncnc2c1ncn2[C@@H]1O[C@@H]2COP(=O)(O)O[C@H]3[C@@H](O)[C@H](n4cnc5c(N)ncnc54)O[C@@H]3COP(=O)(O)O[C@H]2[C@H]1O [c-di-AMP] | the purified recombinant DacA protein produces c-di-AMP from two molecules of ATP | C-di-AMP binds to four proteins: KtrA (Gbs1678) | C-di-AMP binds to four proteins: KtrA (Gbs1678), TrkH (Gbs1639), OpuCA (Gbs0235) | C-di-AMP binds to four proteins: KtrA (Gbs1678), TrkH (Gbs1639) | C-di-AMP binds to four proteins: KtrA (Gbs1678), TrkH (Gbs1639), OpuCA (Gbs0235) and Gbs1201 | 
3 | AGTTGTAATATTAATACTAATAAGTCTTTAAATAATTCAATAATGCCATAACAATAATGGTGTGGGCTAATTAAAATATCTCTAAGCAAAGGTGTTGACATAAAGAGACCATACATGATATTATAGTTATGTTCTGTTTCGGCAGTTTATTTTTTTGAGTAAAAAAGTGACTACCCTTTTACGATACTTTAACGTCACTTTATAGATAAGACACATAACCTTAAAAATAAGATACGAAATT (double strand) [PbusAB EMSA fragment (245 bp)] |  |  |  |  |  | binds
